These are literature values, as cited in US11857524B2, “Stable oral suspensions of baclofen” (ANI Pharmaceuticals, Inc., priority 2021, dated 2024).

Like-named read-outs stand apart in the source and are kept apart here.

Regarding `NCC(CC(=O)O)c1ccc(Cl)cc1` (stereo not drawn) [Baclofen, 4-amino-3-(4-chlorophenyl)-butanoic acid], the Solubility result (in chloroform) is on record as “insoluble”, the Solubility entry (in methanol) is reported as “very slightly soluble” and the Solubility entry (in water) is listed as “slightly soluble”.
